The subject of test [1] is pinch skin graft from male DBA/2 donors transplanted to male BALB/c recipients. Nature of the test: survival time of pinch skin graft. Type of test: in vivo, mouse (DBA/2 donors. The settings on record: intraperitoneally; days to rejection. On the procedure:
(§1) Immunosuppressive activity was evaluated in an in vitro standard pharmacological test procedure to measure lymphocyte proliferation (LAF) and in two in vivo standard pharmacological test procedures. The first in vivo procedure was a popliteal lymph node (PLN) test procedure which measured the effect of compounds of this invention on a mixed lymphocyte reaction and the second in vivo procedure evaluated the survival time of a pinch skin graft.
The second in vivo test procedure is designed to determine the survival time of pinch skin graft from male DBA/2 donors transplanted to male BALB/c recipients. The method is adapted from Billingham R. E. and Medawar P. B., J. Exp. Biol. 28:385-402, (1951). Briefly, a pinch skin graft from the donor is grafted on the dorsum of the recipient as a homograft, and an autograft is used as control in the same region. […] Untreated recipients serve as rejection control. The graft is monitored daily and observations are recorded until the graft becomes dry and forms a blackened scab. This is considered as the rejection day. The mean graft survival time (number of days±S.D.) of the drug treatment group is compared with the control group.

In test [2] the test system is mixed lymphocyte reaction in popliteal lymph node. Nature of the test: popliteal lymph node (PLN) test procedure, in vivo mixed lymphocyte reaction. The note with it: for PLN (ratio): p.o. daily Day 0 to Day 4, calculation described in b30 (formula not shown). Further details: species or system mouse (BALB/c donors, C3H mice recipients). On the procedure:
as §1
A mixed lymphocyte reaction (MLR) occurs when lymphoid cells from genetically distinct animals are combined in tissue culture. Each stimulates the other to undergo blast transformation which results in increased DNA synthesis that can be quantified by the incorporation of tritiated thymidine. Since stimulating a MLR is a function of disparity at Major Histocompatibility antigens, an in vivo popliteal lymph node (PLN) test procedure closely correlates to host vs. graft disease. Briefly, irradiated spleen cells from BALB/c donors are injected into the right hind foot pad of recipient C3H mice. The drug is given daily, p.o. from Day 0 to Day 4. On Day 3 and Day 4, tritiated thymidine is given i.p., b.i.d. On Day 5, the hind popliteal lymph nodes are removed and dissolved, and radioactivity counted. The corresponding left PLN serves as the control for the PLN from the injected hind foot. Percent suppression is calculated using the non-drug treated animals as allogenic control. […] Results are expressed by the following ratio: [formula]

Test [3] has as its system thymocyte proliferation (cells from the thymus of normal BALB/c mice, PHA and IL-1). Kind of test: comitogen-induced thymocyte proliferation procedure (LAF). In kind it is cell-based. The settings on record: for LAF (ratio): calculation described in b29 (formula not shown). On the procedure:
as §1
Briefly, cells from the thymus of normal BALB/c mice are cultured for 72 hours with PHA and IL-1 and pulsed with tritiated thymidine during the last six hours. […] Cells are harvested and incorporated; radioactivity is determined. Inhibition of lymphoproliferation is assessed in percent change in counts per minute from non-drug treated controls. The results are expressed by the following ratio, or as the IC50, expressed in nM. [formula]

For test [4], the system named is organ grafts in histoincompatible rodents. The settings on record: cited from earlier work.
The subject of test [5] is experimental allergic encephalomyelitis model, a model for multiple sclerosis. The note with it: in vivo; cited from earlier work.
A further test relates to Candida albicans. The note with it: particularly against Candida albicans, both in vitro and in vivo; cited from earlier work.
Test [6] concerns formation of IgE-like antibodies. The settings on record: cited from earlier work.

`CO[C@H]1C[C@@H]2CC[C@@H](C)[C@@](O)(O2)C(=O)C(=O)N2CCCC[C@H]2C(=O)O[C@H]([C@H](C)C[C@@H]2CC[C@@H](OC(=O)CC[C@H](NC(=O)OCc3ccccc3)C(=O)O[C@@H]3CC[C@@H](C[C@@H](C)[C@@H]4CC(=O)[C@H](C)/C=C(\C)[C@@H](O)[C@@H](OC)C(=O)[C@H](C)C[C@H](C)/C=C/C=C/C=C(\C)[C@@H](OC)C[C@@H]5CC[C@@H](C)[C@@](O)(O5)C(=O)C(=O)N5CCCC[C@H]5C(=O)O4)C[C@H]3OC)[C@H](OC)C2)CC(=O)[C@H](C)/C=C(\C)[C@@H](O)[C@@H](OC)C(=O)[C@H](C)C[C@H](C)/C=C/C=C/C=C/1C` [Example 1, Rapamycin-42,42'-diester with N-[(phenylmethoxy)carbonyl]-L-glutamic acid]: in test [1], the “Skin Graft (mean graft survival time)” value is given as 10.2 ± 0.4 days ± SD. For the same molecule, the “PLN (ratio)” value in test [2] was 0.45. In addition, the “LAF (ratio)” value in test [3] is 0.53.

For the molecule `CO[C@H]1C[C@@H]2CC[C@@H](C)[C@@](O)(O2)C(=O)C(=O)N2CCCC[C@H]2C(=O)O[C@H]([C@H](C)C[C@@H]2CC[C@@H](OC(=O)C[C@H](NC(=O)OCc3ccccc3)C(=O)O[C@@H]3CC[C@@H](C[C@@H](C)[C@@H]4CC(=O)[C@H](C)/C=C(\C)[C@@H](O)[C@@H](OC)C(=O)[C@H](C)C[C@H](C)/C=C/C=C/C=C(\C)[C@@H](OC)C[C@@H]5CC[C@@H](C)[C@@](O)(O5)C(=O)C(=O)N5CCCC[C@H]5C(=O)O4)C[C@H]3OC)[C@H](OC)C2)CC(=O)[C@H](C)/C=C(\C)[C@@H](O)[C@@H](OC)C(=O)[C@H](C)C[C@H](C)/C=C/C=C/C=C/1C` [Example 2, Rapamycin 42-42'-diester with N-[(phenylmethoxycarbonyl)]-L-aspartic acid], the “Skin Graft (mean graft survival time)” value in test [1] is reported as 10.7 ± 0.2 days ± SD. The “PLN (ratio)” value in test [2] is given as 0.45. In addition, the “LAF (ratio)” value in test [3] is recorded as 0.32.

Broadly, the IC50 is the concentration needed to halve the response being measured. `CO[C@H]1C[C@@H]2CC[C@@H](C)[C@@](O)(O2)C(=O)C(=O)N2CCCC[C@H]2C(=O)O[C@H]([C@H](C)C[C@@H]2CC[C@@H](O)[C@H](OC)C2)CC(=O)[C@H](C)/C=C(\C)[C@@H](O)[C@@H](OC)C(=O)[C@H](C)C[C@H](C)/C=C/C=C/C=C/1C` [Rapamycin, rapamycin]: the “Skin Graft (mean graft survival time)” value in test [1] is 12.0 ± 1.7 days ± SD. Besides, in test [2] (6 mg/kg, p.o., vs non-drug treated allogenic control), the “Percent suppression in PLN” value is recorded as 86%. In addition, the IC50 in test [3] (Mus musculus, Thymocyte, read-out: LAF IC50) came out at 8.7 nM. For the same molecule, in test [4], the “survival time of organ grafts” value is on record as “prolong survival time of organ grafts”. In test [5], the “effect in experimental allergic encephalomyelitis model” value is listed as “effective”. Besides, the antifungal activity entry in the test with Candida albicans was “antifungal activity, particularly against Candida albicans, both in vitro and in vivo”. Moreover, in test [6], the “inhibition of the formation of IgE-like antibodies” value is recorded as “effectively inhibited the formation of IgE-like antibodies”.

The record behind these values is US5162333A, “Aminodiesters of rapamycin” (American Home Products Corporation, priority 1991, dated 1992).
